Reference: US20230183176A1, “PROCESS OF MAKING N,N'-DIACETYL-L-CYSTINE” (Conopco, Inc., d/b/a UNILEVER, priority 2020, published 2023)

Columns and labels:
[1] = organic solvents such as alcohols, ethers, esters, ketones; cited from earlier work
skin cells = experiment: potentiating glutathione synthesis within skin cells; format: cell-based; details: compared with cystine
[2] = solubility of NDAC compared with cystine; format: physicochemical

Row | solubility relative to cystine [2] | Compound | solubility in organic solvents [1] | performance for potentiating glutathione synthesis within skin cells (skin cells)
1 |  | N[C@@H](CSSC[C@H](N)C(=O)O)C(=O)O [cystine, L-Cystine] | practically insoluble | 
2 | more soluble | CC(=O)N[C@@H](CSSC[C@H](NC(C)=O)C(=O)O)C(=O)O [NDAC, N,N′-diacetyl-L-Cystine] |  | comparable to that of cystine
